Source: patent publication US4545932A, “Glucosaminyl muramyl peptide derivatives” (Dainippon Pharmaceutical Co., Ltd., priority 1982, dated 1985)

How the values were obtained:
Format in all cases: in vivo
Pyrogenicity in rabbits = settings: for Pyrogenicity in rabbits: injected into ear vein, three rabbits per group
Experimental: Rabbits (each group: three rabbits) were used. Test compounds dissolved in a physiological saline solution were each injected into ear vein of rabbits. The difference between maximum body temperature within three hours after the injection of test compound and the body temperature before the injection was regarded as rise in body temperature. The degree of pyrogenicity was evaluated according to the following criterion: […]

Candida albicans 3170 = experiment: Prophylactic effect on experimental infection, Candida albicans; settings: Std-ddY male mice, 7 days after infection
Excerpt: (§1) Std-ddY male mice weighing about 23 g (each group: 8 mice) were used. Test compounds dissolved in a physiological saline solution were each intravenously administered to mice once a day 1, 2 and 3 days before the infection. Twenty-four hours after the final administration of test compounds, the mice were infected with various microorganisms suspended in saline (in case of Staphylococcus aureus and Candida albicans) or in Trypto-Soy Broth (manufactured by Eiken Chemical Co., Ltd., Japan) (in case of Pseudomonas aeruginosa and Escherichia coli) under the conditions as shown in Table 1. When the experiment was repeated twice or more, the data were pooled.
3170 fungal sus- infection
(§2) ^a Test compounds were intravenously administered once a day 1, 2 and
(§3) 3 days before infection.
(§4) ^b Figures represent (number of survivals)/(number of animals tested)
(§5) and figures in parenthesis represent percent survival.

[1] = test system: Staphylococcus aureus No. 50774; experiment: Prophylactic effect on experimental infection, Staphylococcus aureus; settings: Std-ddY male mice, 14 days after infection
Excerpt: as §1, §2, §3, §4, §5

Escherichia coli P-5101 = experiment: Prophylactic effect on experimental infection, Escherichia coli; settings: Std-ddY male mice, 7 days after infection
Excerpt: as §1, §2, §3, §4, §5

[2] = test system: Pseudomonas aeruginosa No. 12; experiment: Prophylactic effect on experimental infection, Pseudomonas aeruginosa; settings: Std-ddY male mice, 7 days after infection
Excerpt: as §1, §2, §3, §4, §5

various microorganisms = experiment: Antiinfectious effect in mice; settings: similar experiments; no data given
Excerpt: as §1
Besides, as to the compounds of Examples 8, 18, 36, 37 and 45 (derivatives of GMP3 -A), similar experiments were done.

[3] = Dose 3.1 mg/kg i.v. once a day 1, 2 and 3 days before infection
[4] = Dose 12.5 mg/kg i.v. once a day 1, 2 and 3 days before infection
[5] = Dose 50 mg/kg i.v. once a day 1, 2 and 3 days before infection
[6] = Dose 0.05 mg/kg i.v. once a day 1, 2 and 3 days before infection
[7] = Dose 0.125 mg/kg i.v. once a day 1, 2 and 3 days before infection
[8] = Dose 0.2 mg/kg i.v. once a day 1, 2 and 3 days before infection
[9] = Dose 0.8 mg/kg i.v. once a day 1, 2 and 3 days before infection
[10] = Dose 0.0125 mg/kg i.v. once a day 1, 2 and 3 days before infection
[11] = similar experiments, no data given

For `CCCCCCCCCCCCCCCCCCNC(=O)C(CCCC(N)C(N)=O)NC(=O)CCC(NC(=O)C(C)NC(=O)C(C)OC1C(NC(C)=O)C(O)OC(CO)C1OC1OC(CO)C(O)C(O)C1NC(C)=O)C(N)=O.Cl` [Example 45, β-N-acetylglucosaminyl-(1→4)-N-acetylmuramyl-L-alanyl-D-isoglutaminyl-(L)-meso-2,6-diaminopimelic acid-(D)-amide-(L)-octadecylamide hydrochloride], the “pyrogenicity compared with GMP3 -A” value (Pyrogenicity in rabbits; rabbit, in vivo) was “by far the less than that of GMP3 -A”.
With `CC(=O)NC(CCCC(NC(=O)CCC(NC(=O)C(C)NC(=O)C(C)OC1C(NC(C)=O)C(O)OC(CO)C1OC1OC(CO)C(O)C(O)C1NC(C)=O)C(N)=O)C(N)=O)C(N)=O` [Example 36, β-N-acetylglucosaminyl-(1→4)-N-acetylmuramyl-L-alanyl-D-isoglutaminyl-(L)-acetyl-(D)-meso-2,6-diaminopimelic acid-(D),(L)-diamide] the “pyrogenicity compared with GMP3 -A” value (Pyrogenicity in rabbits; rabbit, in vivo) was “by far the less than that of GMP3 -A”.
In the case of `CC(=O)NC1C(OC2C(CO)OC(O)C(NC(C)=O)C2OC(C)C(=O)NC(C)C(=O)NC(CCC(=O)NC(CCCC(N)C(N)=O)C(=O)NC(C)C(=O)O)C(N)=O)OC(CO)C(O)C1O` [GMP4 -A, β-N-acetylglucosaminyl-(1→4)-N-acetylmuramyl-L-alanyl-D-isoglutaminyl-(L)-meso-2,6-diaminopimelic acid-(D)-amide-(L)-D-alanine, reference compound], the “(number of survivals)/(number of animals tested)” value (Candida albicans 3170; [3]) is reported as 2/8, the percent survival (Candida albicans 3170; [3]) is reported as 25% and the “(number of survivals)/(number of animals tested)” value (Candida albicans 3170; [4]) is reported as 4/8. For the same compound, the percent survival (Candida albicans 3170; [4]) was 50%, the “(number of survivals)/(number of animals tested)” value (Candida albicans 3170; [5]) was 6/8 and the percent survival (Candida albicans 3170; [5]) was 75%. The “(number of survivals)/(number of animals tested)” value [1, 6] was 3/24, the percent survival [1, 6] was 12.5% and the “(number of survivals)/(number of animals tested)” value [1, 7] was 0/8. The percent survival [1, 7] was 0%, the “(number of survivals)/(number of animals tested)” value [1, 8] was 6/16 and the percent survival [1, 8] was 37.5%. For the same compound, the “(number of survivals)/(number of animals tested)” value [1, 9] was 11/32, the percent survival [1, 9] was 34.4% and the “(number of survivals)/(number of animals tested)” value [1, 3] was 11/32. For the same compound, the percent survival [1, 3] was 34.4%, the “(number of survivals)/(number of animals tested)” value [1, 4] was 23/32 and the percent survival [1, 4] was 71.9%. For the same compound, the “(number of survivals)/(number of animals tested)” value (Escherichia coli P-5101; [8]) was 0/8, the percent survival (Escherichia coli P-5101; [8]) was 0% and the “(number of survivals)/(number of animals tested)” value (Escherichia coli P-5101; [9]) was 0/8. The percent survival (Escherichia coli P-5101; [9]) was 0%, the “(number of survivals)/(number of animals tested)” value (Escherichia coli P-5101; [3]) was 5/24 and the percent survival (Escherichia coli P-5101; [3]) was 20.8%. For the same compound, the “(number of survivals)/(number of animals tested)” value (Escherichia coli P-5101; [4]) was 10/24, the percent survival (Escherichia coli P-5101; [4]) was 41.7% and the “(number of survivals)/(number of animals tested)” value (Escherichia coli P-5101; [5]) was 10/16. The percent survival (Escherichia coli P-5101; [5]) was 62.5%, the Pyrogenicity in rabbits (Pyrogenicity in rabbits; Dose 0.1 mg/rabbit) was “- (one animal showed rise in body temperature of 0.6 °C or more)” and the Pyrogenicity in rabbits (Pyrogenicity in rabbits; Dose 0.3 mg/rabbit) was “+ (two or more animals showed rise in body temperature of 0.6 °C or more)”. For the same compound, the Pyrogenicity in rabbits (Pyrogenicity in rabbits; Dose 1 mg/rabbit) was “+ (two or more animals showed rise in body temperature of 0.6 °C or more)”, the Pyrogenicity in rabbits (Pyrogenicity in rabbits; Dose 3 mg/rabbit) was “+ (two or more animals showed rise in body temperature of 0.6 °C or more)” and the Pyrogenicity in rabbits (Pyrogenicity in rabbits; Dose 10 mg/rabbit) was “+ (two or more animals showed rise in body temperature of 0.6 °C or more)”. The “(number of survivals)/(number of animals tested)” value [2, 10] was 12/40, the percent survival [2, 10] was 30% and the “(number of survivals)/(number of animals tested)” value [2, 6] was 16/48. The percent survival [2, 6] was 33.3%, the “(number of survivals)/(number of animals tested)” value [2, 8] was 23/56 and the percent survival [2, 8] was 41.1%. For the same compound, the “(number of survivals)/(number of animals tested)” value [2, 9] was 31/72, the percent survival [2, 9] was 43.1% and the “(number of survivals)/(number of animals tested)” value [2, 3] was 27/64. The percent survival [2, 3] was 42.2%, the “(number of survivals)/(number of animals tested)” value [2, 4] was 32/48 and the percent survival [2, 4] was 66.7%.
For `CCCCCCCCCCCCCCCCCC(=O)NC(CCCC(NC(=O)CCC(NC(=O)C(C)NC(=O)C(C)OC1C(NC(C)=O)C(O)OC(CO)C1OC1OC(CO)C(O)C(O)C1NC(C)=O)C(N)=O)C(=O)[O-])C(N)=O.[Na+]` (stereo not shown) [Example 18], the “antiinfectious effect compared with GMP3 -A” value (various microorganisms) was “more potent antiinfectious effect” and the “pyrogenicity compared with GMP3 -A” value (Pyrogenicity in rabbits; [11]) was “less pyrogenicity than GMP3 -A”.
With `CCCCCCCCCCNC(=O)C(CCCC(NC(C)=O)C(N)=O)NC(=O)CCC(NC(=O)C(C)NC(=O)C(C)OC1C(NC(C)=O)C(O)OC(CO)C1OC1OC(CO)C(O)C(O)C1NC(C)=O)C(N)=O` (stereo not shown) [Example 37] the “pyrogenicity compared with GMP3 -A” value (Pyrogenicity in rabbits; rabbit, in vivo) was “by far the less than that of GMP3 -A”.
With `CCCCCCCCC=CCCCCCCCC(=O)NC(CCCC(NC(=O)CCC(NC(=O)C(C)NC(=O)C(C)OC1C(NC(C)=O)C(O)OC(CO)C1OC1OC(CO)C(O)C(O)C1NC(C)=O)C(N)=O)C(=O)[O-])C(N)=O.[Na+]` (stereo not shown) [Example 8] the “antiinfectious effect compared with GMP3 -A” value (various microorganisms) was “more potent antiinfectious effect” and the “pyrogenicity compared with GMP3 -A” value (Pyrogenicity in rabbits; [11]) was “less pyrogenicity than GMP3 -A”.
